Experimental data reported in patent publication US7825090B2, “Use of ghrelin and unacylated ghrelin compositions for treating insulin resistance” (Alizé Pharma SAS, priority 2004, dated 2010).
Entries after “also recorded” stand apart in the source; their conditions may differ. No end group written: not given here. *: point of attachment. Octanoyl = CCCCCCCC(=O)*

Experiments:
GH deficient subjects [1] = test: Serum free fatty acid concentrations after i.v. AG, UAG, AG+GH or AG+UAG, before and after a standard lunch; assay type: in vivo, human; conditions: compounds administered 2-6 hrs before
Description: Eight male subjects with a pituitary insufficiency but otherwise healthy, were asked to participate (range 21-69 yrs (age 55±10; mean±standard error of mean or SEM)) and a body mass index of 29.4±2.8 (mean±SEM). […] All subjects were admitted at the Clinical Research Unit. No alcoholic beverages were allowed from the day prior to admission until the end of the study. Also, all subjects were asked to skip the administration of their GH replacement every night prior to each of the 5 admission days. All subjects gave their written informed consent to participate in the study, which had been approved the hospital's Ethical Committee. […]
(§1) Insulin was assessed with a radioimmunoassay (Medgenix Diagnostics, Brussels, Belgium; intra- and interassay coefficient of variation (CV) 13.7 and 8.0% respectively). Glucose was assessed with an automatic hexokinase method (Roche, Almere, The Netherlands). Free fatty acids were determined with an enzymatic […] method (Wako Chemicals GmbH, Neuss, Germany; intra- and interassay CV 1.1 and 4.1% respectively).
(§2) Differences between the several study days were calculated, using a Newman-Keuls Multiple Comparison one-way ANOVA test (GraphPad Prism 4 for Windows; GraphPad Inc. USA). […] Areas under the curve were calculated using the trapezoid rule.

GH deficient subjects [2] = test: Insulin sensitivity judged from areas under the curve of glucose, insulin and FFA (FIG. 8, FIG. 9); assay type: in vivo, human
Description: Eight male subjects with a pituitary insufficiency but otherwise healthy, were asked to participate (range 21-69 yrs (age 55±10; mean±standard error of mean or SEM)) and a body mass index of 29.4±2.8 (mean±SEM). […] All subjects were admitted at the Clinical Research Unit. No alcoholic beverages were allowed from the day prior to admission until the end of the study. Also, all subjects were asked to skip the administration of their GH replacement every night prior to each of the 5 admission days. All subjects gave their written informed consent to participate in the study, which had been approved the hospital's Ethical Committee. […] Insulin was assessed with a radioimmunoassay (Medgenix Diagnostics, Brussels, Belgium; intra- and interassay coefficient of variation (CV) 13.7 and 8.0% respectively). Glucose was assessed with an automatic hexokinase method (Roche, Almere, The Netherlands). Free fatty acids were determined with an enzymatic […] method (Wako Chemicals GmbH, Neuss, Germany; intra- and interassay CV 1.1 and 4.1% respectively). Differences between the several study days were calculated, using a Newman-Keuls Multiple Comparison one-way ANOVA test (GraphPad Prism 4 for Windows; GraphPad Inc. USA). […] Areas under the curve were calculated using the trapezoid rule.

GH deficient subjects [3] = test: Serum insulin concentrations after i.v. AG, UAG, AG+GH or AG+UAG, before and after a standard lunch; assay type: in vivo, human; conditions: for effect on serum insulin levels after a standard lunch: GH deficient subjects; for effect on serum insulin levels: first two hours after i.v. administration, before lunch, fasting
Description: (§3) Eight male subjects with a pituitary insufficiency but otherwise healthy, were asked to participate (range 21-69 yrs (age 55±10; mean±standard error of mean or SEM)) and a body mass index of 29.4±2.8 (mean±SEM). […] All subjects were admitted at the Clinical Research Unit. No alcoholic beverages were allowed from the day prior to admission until the end of the study. Also, all subjects were asked to skip the administration of their GH replacement every night prior to each of the 5 admission days. All subjects gave their written informed consent to participate in the study, which had been approved the hospital's Ethical Committee.
(§4) All subjects underwent the following five testing sessions, each after an overnight fast, in random order and at least 1 week apart: 1) placebo (saline 3 ml iv). 2) acylated ghrelin (Neosystem S.A.; Strasbourg, France; 1.0 μg/kg iv, using a bacterial filter system). 3) unacylated ghrelin (Neosystem S.A.; Strasbourg, France; 1.0 μg/kg iv, using a filter system). 4) acylated ghrelin (1.0 μg/kg iv) but this time after the normal GH replacement dose was administered 15 minutes before. 5) acylated ghrelin in combination with unacylated ghrelin (both 1.0 μg/kg iv, but via separate injection sites). All tests started in the morning at 09:30 am, 30′ after one or two indwelling catheters had been placed into an antecubital vein, kept patent by slow infusion of isotonic saline.
(§5) This meal was taken by all subjects all tests days.
as §1
(§6) Differences between the several study days were calculated, using a Newman-Keuls Multiple Comparison one-way ANOVA test (GraphPad Prism 4 for Windows; GraphPad Inc. USA). P-values <0.05 were considered significant. Areas under the curve were calculated using the trapezoid rule.

[4] = Serum total and acylated ghrelin concentrations after i.v. bolus injection (radioimmunoassay); design: species or system human; conditions: in vivo, iv
Description: as §3
All subjects underwent the following five testing sessions, each after an overnight fast, in random order and at least 1 week apart: 1) placebo (saline 3 ml iv). 2) acylated ghrelin (Neosystem S.A.; Strasbourg, France; 1.0 μg/kg iv, using a bacterial filter system). […]
Acylated and total ghrelin concentrations were measured, using a commercially available radioimmunoassay (Linco research Inc. Missouri, USA). […] The lowest level of ghrelin that can be detected by this assay is […] when using a 100 μl sample size. […]
as §2

GH deficient subjects [5] = test: Serum glucose concentrations after i.v. AG, UAG, AG+GH or AG+UAG, before and after a standard lunch; assay type: in vivo, human; conditions: for effect on serum glucose levels after a standard lunch: GH deficient subjects; for effect on serum glucose levels: first two hours after i.v. administration, before lunch, fasting
Description: as §3, §4, §5, §1, §6

cloned cells = conditions: cited from earlier work
GH secretion = conditions: compared with Ghrelin-28; cited from earlier work

| Compound | effect on serum FFA levels after a standard lunch (GH deficient subjects [1]) | duration of decrease in insulin sensitivity after administration (GH deficient subjects [2]; after administration of acylated ghrelin) | effect on insulin sensitivity (GH deficient subjects [2]; period following lunch, AUC (FIG. 9)) | effect on serum insulin levels after a standard lunch (GH deficient subjects [3]) | effect on serum insulin levels (GH deficient subjects [3]) | effect on unacylated ghrelin levels [4] | effect on serum glucose levels after a standard lunch (GH deficient subjects [5]) | effect on serum glucose levels (GH deficient subjects [5]) | effect on serum glucose levels (GH deficient subjects [5]; listed as acylated ghrelin) | effect on serum glucose levels (GH deficient subjects [5]; listed as unacylated ghrelin) | Ca2+ fluxes (cloned cells) | induction of GH secretion (GH secretion) |
| --- | --- | --- | --- | --- | --- | --- | --- | --- | --- | --- | --- | --- |
| CCCCCCCC(=O)OC[C@H](NC(=O)[C@H](CO)NC(=O)CN)C(=O)N[C@@H](Cc1ccccc1)C(=O)N[C@@H](CC(C)C)C(=O)N[C@@H](CO)C(=O)N1CCC[C@H]1C(=O)N[C@@H](CCC(=O)O)C(=O)N[C@@H](Cc1cnc[nH]1)C(=O)N[C@@H](CCC(N)=O)C(=O)N[C@@H](CCCNC(=N)N)C(=O)N[C@H](C(=O)N[C@@H](CCC(N)=O)C(=O)N[C@@H](CCC(N)=O)C(=O)N[C@@H](CCCNC(=N)N)C(=O)N[C@@H](CCCCN)C(=O)N[C@@H](CCC(=O)O)C(=O)N[C@@H](CO)C(=O)N[C@@H](CCCCN)C(=O)N[C@@H](CCCCN)C(=O)N1CCC[C@H]1C(=O)N1CCC[C@H]1C(=O)N[C@@H](C)C(=O)N[C@@H](CCCCN)C(=O)N[C@@H](CC(C)C)C(=O)N[C@@H](CCC(N)=O)C(=O)N1CCC[C@H]1C(=O)N[C@@H](CCCNC(=N)N)C(=O)O)C(C)C [AG] | significantly increased FFA levels after lunch, compared to placebo | at least 6 hours | decreases insulin sensitivity, compared to placebo | increased insulin levels the most | immediately increases glucose and insulin levels | induces an acute increase in unacylated ghrelin levels | increase serum glucose levels significantly | induces a significant hyperglycemia | immediately increases glucose and insulin levels | – | – | – |
| CC(C)C[C@H](NC(=O)[C@H](CCCCN)NC(=O)[C@H](C)NC(=O)[C@@H]1CCCN1C(=O)[C@@H]1CCCN1C(=O)[C@H](CCCCN)NC(=O)[C@H](CCCCN)NC(=O)[C@H](CO)NC(=O)[C@H](CCC(=O)O)NC(=O)[C@H](CCCCN)NC(=O)[C@H](CCCNC(=N)N)NC(=O)[C@H](CCC(N)=O)NC(=O)[C@H](CCC(N)=O)NC(=O)[C@@H](NC(=O)[C@H](CCCNC(=N)N)NC(=O)[C@H](CCC(N)=O)NC(=O)[C@H](Cc1c[nH]cn1)NC(=O)[C@H](CCC(=O)O)NC(=O)[C@@H]1CCCN1C(=O)[C@H](CO)NC(=O)[C@H](CC(C)C)NC(=O)[C@H](Cc1ccccc1)NC(=O)[C@H](CO)NC(=O)[C@H](CO)NC(=O)CN)C(C)C)C(=O)N[C@@H](CCC(N)=O)C(=O)N1CCC[C@H]1C(=O)N[C@@H](CCCNC(=N)N)C(=O)O [UAG] | could not be observed | – | – | increased insulin levels the most, followed UAG | This does not occur | – | increase serum glucose levels significantly; also recorded: increases serum glucose levels significantly more than AG | to a lesser extent, UAG, induces a significant hyperglycemia | – | This does not occur | – | – |
| Gly-Ser-[octanoyl]Ser-Phe-Leu-Ser-Pro-Glu-His-Gln-Arg-Val-Gln-Arg-Lys-Glu-Ser-Lys-Lys-Pro-Pro-Ala-Lys-Leu-Gln-Pro-Arg (GSS(Octanoyl)FLSPEHQRVQRKESKKPPAKLQPR; listed as Homo sapiens) [des Gln-14 ghrelin] | – | – | – | – | – | – | – | – | – | – | elicits Ca^2+ fluxes in cloned cells | induces GH secretion with similar potency as Ghrelin-28 |
